Tests used:
GALAP (Galium) [1] = assay: Postemergence herbicidal evaluation; format: in vivo, Galium aparine; settings: postemergence
Procedure, shortened: (§1)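 Scores (0–9) reflect plant stand, vigor, malformation, size, chlorosis and general appearance relative to control, read 4 to 5 weeks after treatment and averaged where tests were repeated. Application: about 0.0156–0.500 kg/ha sprayed at 40 psi onto two-week seedlings.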

CYPIR (Rice Flatsedge) = assay: Preemergence weed control under flooded paddy conditions; format: in vivo, Cyperus iria; settings: rated 3-4 weeks after treatment
Procedure, shortened: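 First, seeds or propagules go into the top 0.5 cm of silt loam; next, water is held 1.5 to 3 cm over the soil; then compound (50/50 acetone/water) is pipetted into it at about 0.0313 to 0.500 kg/ha; finally plants are rated visually 0-9 after three to four weeks.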

AMBEL (Ragweed, Common) = assay: Postemergence herbicidal evaluation; format: in vivo, Ambrosia artemisifolia; settings: postemergence
Procedure, shortened: as §1

[2] = system: GLXMAW (Soybean, Williams); assay: Postemergence herbicidal evaluation; format: in vivo, Glycine max, (L.) Merr. cv Williams; settings: postemergence
Procedure, shortened: as §1

ZEAMX (Corn, Field) = assay: Preemergence herbicidal evaluation; format: in vivo, Zea mays; settings: rated 4-5 weeks after treatment, rating scale 0-9
Procedure, shortened: (§2)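 Each species is sown separately in potting soil over roughly an inch of soil before any emergence. The soil surface then receives an aqueous acetone spray delivering about 0.0156 to 0.500 kg/ha of compound. After four to five weeks, injury is scored from 0 to 9 relative to a control.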

[3] = system: CHEAL (Lambsquarters, Common); assay: Postemergence herbicidal evaluation; format: in vivo, Chenopodium album; settings: postemergence
Procedure, shortened: as §1

ECHCG (Barnyardgrass) = assay: Postemergence herbicidal evaluation; format: in vivo, Echinochloa crus-galli; settings: postemergence
Procedure, shortened: as §1

CASOB (Sicklepod) [4] = assay: Postemergence herbicidal evaluation; format: in vivo, Cassia obtusifolia; settings: postemergence
Procedure, shortened: as §1

ORYSAT (Rice, Tebonnet) = assay: Postemergence herbicidal evaluation; format: in vivo, Oryza sativa, (L.) Tebonnet; settings: postemergence
Procedure, shortened: as §1

GALAP (Galium) [5] = assay: Preemergence herbicidal evaluation; format: in vivo, Galium aparine; settings: rated 4-5 weeks after treatment, rating scale 0-9
Procedure, shortened: as §2

CASOB (Sicklepod) [6] = assay: Preemergence herbicidal evaluation; format: in vivo, Cassia obtusifolia; settings: rated 4-5 weeks after treatment, rating scale 0-9
Procedure, shortened: as §2

CYPSE (Flatsedge) = assay: Preemergence weed control under flooded paddy conditions; format: in vivo, Cyperus serotinus; settings: rated 3-4 weeks after treatment
Procedure, shortened: (§3)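 Seeds or propagules sown in silt loam kept flooded 1.5-3 cm; compounds in 50/50 acetone/water pipetted into flood water at about 0.0313 to 0.500 kg/ha. Greenhouse; visual 0-9 rating versus untreated control 3-4 weeks after treatment.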

SETVI (Foxtail, Green) = assay: Postemergence herbicidal evaluation; format: in vivo, Setaria viridis; settings: postemergence
Procedure, shortened: as §1

[7] = system: SAGPY (Arrowhead (Pygmaea)); assay: Preemergence weed control under flooded paddy conditions; format: in vivo, Sagittaria pygmaea; settings: rated 3-4 weeks after treatment
Procedure, shortened: as §3

**Q.** How did the “Herbicidal rating GALAP” value (GALAP (Galium) [1]; rate 0.0156 kg/ha) turn out when `Cn1c(C(F)(F)F)cc(=O)n(-c2cc(N=C3SCC(=O)N3Cc3cccc(Cl)c3)c(Cl)cc2F)c1=O` [Compound 136, 3-{4-Chloro-5-{[3-(m-chlorobenzyl)-4-oxo-2-thiazolidinylidene]amino}-2-fluorophenyl}-1-methyl-6-(trifluoromethyl)-2,4(1H,3H)-pyrimidinedione] was run?
**A.** The value was 1.0.

**Q.** And the “Herbicidal rating GALAP” value (GALAP (Galium) [1]; rate 0.0313 kg/ha)?
**A.** The value was 2.0.

**Q.** What about the “Herbicidal rating GALAP” value (GALAP (Galium) [1]; rate 0.0625 kg/ha) of the same molecule?
**A.** The value was 3.0.

**Q.** And the “herbicidal effect rating, CYPIR” value (CYPIR (Rice Flatsedge); 0.0313 kg/ha)?
**A.** Its value is 0.0.

**Q.** What about the “herbicidal effect rating, CYPIR” value (CYPIR (Rice Flatsedge); 0.0625 kg/ha) of the same molecule?
**A.** Its value is 5.0.

**Q.** What about the “herbicidal effect rating, CYPIR” value (CYPIR (Rice Flatsedge); 0.1250 kg/ha) of the same molecule?
**A.** The value was 6.0.

**Q.** What about the “herbicidal effect rating, CYPIR” value (CYPIR (Rice Flatsedge); 0.2500 kg/ha) of the same molecule?
**A.** Its value is 7.0.

**Q.** What about the “Herbicidal rating AMBEL” value (AMBEL (Ragweed, Common); rate 0.0156 kg/ha) of the same molecule?
**A.** The value was 9.0.

**Q.** And the “Herbicidal rating AMBEL” value (AMBEL (Ragweed, Common); rate 0.0313 kg/ha)?
**A.** Its value is 9.0.

**Q.** What about the “Herbicidal rating AMBEL” value (AMBEL (Ragweed, Common); rate 0.0625 kg/ha) of the same molecule?
**A.** Its value is 9.0.

**Q.** And the “Herbicidal rating GLXMAW” value ([2]; rate 0.0156 kg/ha)?
**A.** Its value is 4.5.

**Q.** What about the “Herbicidal rating GLXMAW” value ([2]; rate 0.0313 kg/ha) of the same molecule?
**A.** The value was 5.5.

**Q.** And the “Herbicidal rating GLXMAW” value ([2]; rate 0.0625 kg/ha)?
**A.** The value was 5.5.

**Q.** What about the “Preemergence herbicidal rating ZEAMX” value (ZEAMX (Corn, Field); rate 0.0156 kg/ha) of the same molecule?
**A.** The value was 0.0.

**Q.** And the “Preemergence herbicidal rating ZEAMX” value (ZEAMX (Corn, Field); rate 0.0313 kg/ha)?
**A.** The value was 0.0.

**Q.** And the “Preemergence herbicidal rating ZEAMX” value (ZEAMX (Corn, Field); rate 0.0625 kg/ha)?
**A.** Its value is 0.0.

**Q.** And the “Preemergence herbicidal rating ZEAMX” value (ZEAMX (Corn, Field); rate 0.1250 kg/ha)?
**A.** The value was 1.0.

**Q.** And the “Preemergence herbicidal rating ZEAMX” value (ZEAMX (Corn, Field); rate 0.2500 kg/ha)?
**A.** Its value is 3.0.

**Q.** And the “Herbicidal rating CHEAL” value ([3]; rate 0.0156 kg/ha)?
**A.** Its value is 9.0.

**Q.** What about the “Herbicidal rating CHEAL” value ([3]; rate 0.0313 kg/ha) of the same molecule?
**A.** The value was 9.0.

**Q.** What about the “Herbicidal rating CHEAL” value ([3]; rate 0.0625 kg/ha) of the same molecule?
**A.** The value was 9.0.

**Q.** And the “Herbicidal rating ECHCG” value (ECHCG (Barnyardgrass); rate 0.0156 kg/ha)?
**A.** Its value is 2.0.

**Q.** And the “Herbicidal rating ECHCG” value (ECHCG (Barnyardgrass); rate 0.0313 kg/ha)?
**A.** Its value is 3.0.

**Q.** And the “Herbicidal rating ECHCG” value (ECHCG (Barnyardgrass); rate 0.0625 kg/ha)?
**A.** The value was 3.0.

**Q.** And the “Herbicidal rating CASOB” value (CASOB (Sicklepod) [4]; rate 0.0156 kg/ha)?
**A.** The value was 1.0.

**Q.** And the “Herbicidal rating CASOB” value (CASOB (Sicklepod) [4]; rate 0.0313 kg/ha)?
**A.** Its value is 4.0.

**Q.** What about the “Herbicidal rating CASOB” value (CASOB (Sicklepod) [4]; rate 0.0625 kg/ha) of the same molecule?
**A.** The value was 7.0.

**Q.** And the “Herbicidal rating ORYSAT” value (ORYSAT (Rice, Tebonnet); rate 0.0156 kg/ha)?
**A.** Its value is 2.5.

**Q.** And the “Herbicidal rating ORYSAT” value (ORYSAT (Rice, Tebonnet); rate 0.0313 kg/ha)?
**A.** Its value is 3.0.

**Q.** What about the “Herbicidal rating ORYSAT” value (ORYSAT (Rice, Tebonnet); rate 0.0625 kg/ha) of the same molecule?
**A.** The value was 2.5.

**Q.** What about the “Preemergence herbicidal rating GALAP” value (GALAP (Galium) [5]; rate 0.0156 kg/ha) of the same molecule?
**A.** The value was 0.0.

**Q.** And the “Preemergence herbicidal rating GALAP” value (GALAP (Galium) [5]; rate 0.0313 kg/ha)?
**A.** Its value is 0.0.

**Q.** And the “Preemergence herbicidal rating GALAP” value (GALAP (Galium) [5]; rate 0.0625 kg/ha)?
**A.** The value was 1.0.

**Q.** What about the “Preemergence herbicidal rating GALAP” value (GALAP (Galium) [5]; rate 0.1250 kg/ha) of the same molecule?
**A.** Its value is 2.0.

**Q.** What about the “Preemergence herbicidal rating GALAP” value (GALAP (Galium) [5]; rate 0.2500 kg/ha) of the same molecule?
**A.** The value was 3.0.

**Q.** And the “Preemergence herbicidal rating CASOB” value (CASOB (Sicklepod) [6]; rate 0.0156 kg/ha)?
**A.** Its value is 0.0.

**Q.** And the “Preemergence herbicidal rating CASOB” value (CASOB (Sicklepod) [6]; rate 0.0313 kg/ha)?
**A.** The value was 0.0.

**Q.** And the “Preemergence herbicidal rating CASOB” value (CASOB (Sicklepod) [6]; rate 0.0625 kg/ha)?
**A.** Its value is 0.0.

**Q.** And the “Preemergence herbicidal rating CASOB” value (CASOB (Sicklepod) [6]; rate 0.1250 kg/ha)?
**A.** The value was 0.0.

**Q.** And the “Preemergence herbicidal rating CASOB” value (CASOB (Sicklepod) [6]; rate 0.2500 kg/ha)?
**A.** Its value is 0.0.

**Q.** And the “herbicidal effect rating, CYPSE” value (CYPSE (Flatsedge); 0.0313 kg/ha)?
**A.** Its value is 0.0.

**Q.** What about the “herbicidal effect rating, CYPSE” value (CYPSE (Flatsedge); 0.0625 kg/ha) of the same molecule?
**A.** Its value is 0.0.

**Q.** What about the “herbicidal effect rating, CYPSE” value (CYPSE (Flatsedge); 0.1250 kg/ha) of the same molecule?
**A.** The value was 0.0.

**Q.** And the “herbicidal effect rating, CYPSE” value (CYPSE (Flatsedge); 0.2500 kg/ha)?
**A.** The value was 0.0.

**Q.** What about the “Herbicidal rating SETVI” value (SETVI (Foxtail, Green); rate 0.0156 kg/ha) of the same molecule?
**A.** Its value is 4.0.

**Q.** And the “Herbicidal rating SETVI” value (SETVI (Foxtail, Green); rate 0.0313 kg/ha)?
**A.** Its value is 6.0.

**Q.** What about the “Herbicidal rating SETVI” value (SETVI (Foxtail, Green); rate 0.0625 kg/ha) of the same molecule?
**A.** Its value is 6.0.

**Q.** What about the “herbicidal effect rating, SAGPY” value ([7]; 0.0313 kg/ha) of the same molecule?
**A.** The value was 0.0.

**Q.** And the “herbicidal effect rating, SAGPY” value ([7]; 0.0625 kg/ha)?
**A.** The value was 0.0.

**Q.** What about the “herbicidal effect rating, SAGPY” value ([7]; 0.1250 kg/ha) of the same molecule?
**A.** Its value is 3.0.

**Q.** What about the “herbicidal effect rating, SAGPY” value ([7]; 0.2500 kg/ha) of the same molecule?
**A.** Its value is 3.0.

From patent publication US20020137929A1, “1 - (3-heterocyclylphenyl) isothiourea, -isourea, -guanidine and -amidine herbicidal agents” (Intellectual Property Department, BASF Aktiengesellschaft, priority 1998, published 2002)
